# Laboratory results from ChEMBL document CHEMBL6127107, “Oleanolic acid derivatives against drug-resistant bacteria and fungi by multi-targets to avoid drug resistance” (Eur J Med Chem, 2024).
# Active and inactive are the calls of the source. No cut-off for these calls is given here.
# Legend:
# Staphylococcus aureus [1] = assay: Antimicrobial activity against methicillin-resistant Staphylococcus aureus 003; type: functional
# Enterococcus faecalis = assay: Antimicrobial activity against vancomycin resistant Enterococcus faecalis ATCC 51299; type: functional
# Staphylococcus aureus [2] = assay: Antimicrobial activity against methicillin-resistant Staphylococcus aureus 011; type: functional
# Staphylococcus aureus [3] = assay: Antimicrobial activity against Staphylococcus aureus 29; type: functional
# Staphylococcus aureus [4] = assay: Antimicrobial activity against Staphylococcus aureus 31; type: functional
# Candida albicans = assay: Antimicrobial activity against fluconazole-resistant Candida albicans; type: functional
# [5] = Hemolytic activity against Mianyang red blood cells (unknown origin); type: toxicity, cell-based, RBC
# [6] = Selectivity index, ratio of HC50 for hemolytic activity against Mianyang red blood cells (unknown origin) to MIC for antimicrobial activity against methicillin resistant Staphylococcus aureus 003; type: toxicity, cell-based, RBC; conditions: read-out: Selectivity Index
# Pseudomonas aeruginosa = assay: Antimicrobial activity against Pseudomonas aeruginosa; type: functional
# Escherichia coli = assay: Antimicrobial activity against Escherichia coli; type: functional
# Staphylococcus aureus [7] = assay: Antibacterial activity against methicillin-resistant Staphylococcus aureus assessed as inhibition of bacterial growth at 1 times of MIC; type: functional, organism-based
# Staphylococcus aureus [8] = assay: Bactericidal activity against methicillin-resistant Staphylococcus aureus; type: functional, organism-based
# Staphylococcus aureus [9] = assay: Bactericidal activity against methicillin-resistant Staphylococcus aureus assessed as eradication of bacterial growth at 4 times of MIC measured within 1 hrs relative to control; type: functional
# Staphylococcus aureus [10] = assay: Antibacterial activity against methicillin-resistant Staphylococcus aureus at sub-MIC measured after 20 days of continuous passage; type: functional, organism-based; conditions: time 20.0 day
# HEK-293T = assay: Cytotoxicity against HEK293T cells at 64 microg/ml by MTT assay; type: toxicity, cell-based; conditions: human, dose 64 µg/ml
# Staphylococcus aureus [11] = assay: Synergistic antibacterial activity against methicillin-resistant Staphylococcus aureus assessed as fractional inhibitory concentration index in presence of fluconazole; type: functional
# Staphylococcus aureus [12] = assay: Synergistic antibacterial activity against methicillin-resistant Staphylococcus aureus assessed as fractional inhibitory concentration index in presence of ceftriaxone; type: functional
# Staphylococcus aureus [13] = assay: Synergistic antibacterial activity against methicillin-resistant Staphylococcus aureus assessed as fractional inhibitory concentration index in presence of chlorpromazine; type: functional
# Staphylococcus aureus [14] = assay: Synergistic antibacterial activity against methicillin-resistant Staphylococcus aureus assessed as fractional inhibitory concentration index in presence of azithromycin; type: functional
# Staphylococcus aureus [15] = assay: Synergistic antibacterial activity against methicillin-resistant Staphylococcus aureus assessed as fractional inhibitory concentration index in presence of vancomycin; type: functional
# Staphylococcus aureus [16] = assay: Synergistic antibacterial activity against methicillin-resistant Staphylococcus aureus assessed as fractional inhibitory concentration index in presence of LCN antibiotic; type: functional, organism-based
# Staphylococcus aureus [17] = assay: Synergistic antibacterial activity against methicillin-resistant Staphylococcus aureus assessed as fractional inhibitory concentration index in presence of polymyxin B; type: functional, organism-based
# Staphylococcus aureus [18] = assay: Synergistic antibacterial activity against methicillin-resistant Staphylococcus aureus assessed as fractional inhibitory concentration index in presence of enrofloxacin; type: functional, organism-based
# Staphylococcus aureus [19] = assay: Antibiofilm activity against methicillin-resistant Staphylococcus aureus assessed as decrease in biofilm biomass at 1 to 8 times of MIC by crystal violet staining based analysis; type: functional, organism-based
# Staphylococcus aureus [20] = assay: Antibiofilm activity against methicillin-resistant Staphylococcus aureus assessed as reduction in number of live cells at 8 times of MIC (reference value: 7.79 log10CFU/ml); type: functional
# Staphylococcus aureus [21] = assay: Antibiofilm activity against methicillin-resistant Staphylococcus aureus assessed as inhibition of biofilm formation at 2 times of MIC by crystal violet staining based analysis relative to control; type: functional
# Mitochondrial membrane = assay: Induction of mitochondrial membrane depolarization in methicillin-resistant Staphylococcus aureus assessed as increase in fluorescence intensity at 1 to 8 times of MIC by DiSC3(5) staining based analysis; type: cell membranes
# Cell membrane [22] = assay: Disruption of cell membrane integrity in methicillin-resistant Staphylococcus aureus assessed as nucleic acid leakage by absorbance based analysis; type: subcellular
# Cell membrane [23] = assay: Disruption of cell membrane integrity in methicillin-resistant Staphylococcus aureus assessed as increase in ROS level at 2 to 8 times of MIC incubated for 1 hrs; type: subcellular
# Staphylococcus aureus [24] = assay: Antimicrobial activity against methicillin-resistant Staphylococcus aureus in presence of peptidoglycan; type: functional, organism-based
# Staphylococcus aureus [25] = assay: Antimicrobial activity against methicillin-resistant Staphylococcus aureus in presence of cardiolipin; type: functional, organism-based
# Staphylococcus aureus [26] = assay: Antimicrobial activity against methicillin-resistant Staphylococcus aureus in presence of phosphatidylethanolamine; type: functional, organism-based
# Cell membrane [27] = assay: Disruption of cell membrane integrity in methicillin-resistant Staphylococcus aureus assessed as cell deformation at 2 to 4 times of MIC by scanning electron microscopic analysis; type: subcellular
# DNA [28] = assay: Binding affinity to methicillin-resistant Staphylococcus aureus DNA assessed as inhibition of DNA migration at 75 microg/ml by electrophoretic analysis; type: nucleic-acid assay; conditions: dose 75.0 µg/ml
# Staphylococcus aureus [29] = assay: Antibacterial activity against methicillin-resistant Staphylococcus aureus in presence of DNA; type: functional, organism-based
# DNA [30] = assay: Binding affinity to methicillin-resistant Staphylococcus aureus DNA assessed as effect on helical structure by measuring change in positive and negative peaks at 10 to 40 microg/ml by CD spectra; type: nucleic-acid assay; conditions: dose 10-40 µg/ml
# DNA [31] = assay: Binding affinity to […] methicillin-resistant Staphylococcus aureus DNA assessed as inhibition of DNA migration by electrophoretic analysis; type: nucleic-acid assay
# DNA [32] = assay: Binding affinity to methicillin-resistant Staphylococcus aureus DNA assessed as decrease in fluorescence by PI staining based analysis; type: nucleic-acid assay
# DNA [33] = assay: Binding affinity to methicillin-resistant Staphylococcus aureus DNA minor groove assessed as decrease in fluorescence by DAPI staining based analysis; type: nucleic-acid assay
# Staphylococcus aureus [34] = assay: Antibacterial activity against methicillin-resistant Staphylococcus aureus infected in cyclophosphamide-injected Kunming mouse model of skin wound infection assessed as increase in body weight at 2 to 4 mg/kg measured after 3 days; type: functional, organism-based; conditions: dose 2-4 mg/kg, time 3.0 day
# Staphylococcus aureus [35] = assay: Antibacterial activity against methicillin-resistant Staphylococcus aureus infected in cyclophosphamide-injected Kunming mouse model of skin wound infection assessed as wound repair by measuring reduction in wound area at 2 to 4 mg/kg measured for 7 days by photographic analysis; type: functional, organism-based; conditions: dose 2-4 mg/kg, time 7.0 day
# Staphylococcus aureus [36] = assay: Antibacterial activity against methicillin-resistant Staphylococcus aureus infected in cyclophosphamide-injected Kunming mouse model of skin wound infection assessed as reduction in bacterial load in skin at 1 mg/kg measured after 7 days; type: functional; conditions: time 7 day
# Staphylococcus aureus [37] = assay: Antibacterial activity against methicillin-resistant Staphylococcus aureus infected in cyclophosphamide-injected Kunming mouse model of skin wound infection assessed as reduction in bacterial load in skin at 2 mg/kg measured after 7 days; type: functional; conditions: time 7 day
# Staphylococcus aureus [38] = assay: Antibacterial activity against methicillin-resistant Staphylococcus aureus infected in cyclophosphamide-injected Kunming mouse model of skin wound infection assessed as reduction in IL-6 level in skin at 1 to 4 mg/kg administered for 7 days and measured on day 8; type: functional, organism-based; conditions: dose 1-4 mg/kg, time 8.0 day
# Staphylococcus aureus [39] = assay: (§1) Antibacterial activity against methicillin-resistant Staphylococcus aureus infected in cyclophosphamide-injected Kunming mouse model of skin wound infection assessed as reduction in skin lesions at 1 to 4 mg/kg administered for 7 days and measured on day 8 by H and E staining based analysis; type: functional, organism-based; conditions: dose 1-4 mg/kg, time 8.0 day
# Staphylococcus aureus [40] = assay: as §1, with “normal morphological appearance of” for “reduction in”, “skin” for “skin lesions”; type: functional, organism-based; conditions: dose 1-4 mg/kg, time 8.0 day
structure (smiles),measurement,setting,value
CC(=O)O[C@H]1CC[C@]2(C)[C@H]3CC=C4[C@@H]5CC(C)(C)CC[C@]5(C(=O)NCCCNC(=N)N)CC[C@@]4(C)[C@]3(C)CC[C@H]2C1(C)C,MIC,Staphylococcus aureus [1],1 µg/mL
same,MIC,Enterococcus faecalis,2 µg/mL
same,MIC,Staphylococcus aureus [2],2 µg/mL
same,MIC,Staphylococcus aureus [3],1 µg/mL
same,MIC,Staphylococcus aureus [4],1 µg/mL
same,MIC,Candida albicans,1 µg/mL
same,HC50,[5],399 µg/mL
same,selectivity ratio,[6],399
same,MIC,Pseudomonas aeruginosa,> 64 µg/mL
same,MIC,Escherichia coli,> 64 µg/mL
same,Activity,Staphylococcus aureus [7],Active
same,Activity,Staphylococcus aureus [8],Active
same,Activity,Staphylococcus aureus [9],99.99%
same,Activity,Staphylococcus aureus [10],Active
same,Activity,HEK-293T,Non-Toxic
same,Activity,Staphylococcus aureus [11],Active
same,Activity,Staphylococcus aureus [12],Active
same,Activity,Staphylococcus aureus [13],Active
same,fractional inhibitory concentration index (FICI),Staphylococcus aureus [14],0.188
same,Activity,Staphylococcus aureus [15],Active
same,Activity,Staphylococcus aureus [16],Active
same,Activity,Staphylococcus aureus [17],Active
same,Activity,Staphylococcus aureus [18],Active
same,Activity,Staphylococcus aureus [19],Active
same,Activity,Staphylococcus aureus [20],2.7 log10CFU/ml
same,inhibition (INH),Staphylococcus aureus [21],>80%
same,Activity,Mitochondrial membrane,Dose-Dependent Effect
same,Activity,Cell membrane [22],Active
same,Activity,Cell membrane [23],Active
same,Activity,Staphylococcus aureus [24],Active
same,Activity,Staphylococcus aureus [25],inactive
same,Activity,Staphylococcus aureus [26],inactive
same,Activity,Cell membrane [27],Active
same,Activity,DNA [28],Active
same,Activity,Staphylococcus aureus [29],inactive
same,Activity,DNA [30],Active
same,Activity,DNA [31],Active
same,Activity,DNA [32],Dose-Dependent Effect
same,Activity,DNA [33],inactive
same,Activity,Staphylococcus aureus [34],Active
same,Activity,Staphylococcus aureus [35],Active
same,Activity,Staphylococcus aureus [36],0.97 log10CFU/mg
same,Activity,Staphylococcus aureus [37],1.24 log10CFU/mg
same,Activity,Staphylococcus aureus [38],Active
same,Activity,Staphylococcus aureus [39],Active
same,Activity,Staphylococcus aureus [40],Active
